Test results from PubChem BioAssay (NCI).
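Cells were grown in 96-well plates and exposed to each compound for 48 hours at five concentrations; endpoints were interpolated linearly between bracketing concentrations, or set to the highest concentration if not reached. GI50 = concentration required for 50% inhibition of growth. TGI: total growth inhibition.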

Assays:
Experiment in all cases: DTP human tumour cell line panel, 48 h
[1] = system: A549 NSCLC
[2] = system: PC-3 prostate
[3] = system: K-562 leukemia
[4] = system: HCC-2998 colon
[5] = system: SK-MEL-28 melanoma
[6] = system: CCRF-CEM leukemia
[7] = system: LOX IMVI melanoma
[8] = system: MDA-MB-231 breast
[9] = system: SNB-75 CNS
[10] = system: NCI-H460 lung
[11] = system: SW-620 colon
[12] = system: BT-549 breast
[13] = system: NCI/ADR-RES ovarian
[14] = system: COLO 205 colon
[15] = system: SNB-19 CNS
[16] = system: SF-539 CNS
[17] = system: HCT-15 colon
[18] = system: UACC-257 melanoma
[19] = system: MDA-MB-435
[20] = system: 786-0 renal
[21] = system: SN12C renal
[22] = system: OVCAR-8 ovarian
[23] = system: A498 renal
[24] = system: SF-295 CNS
[25] = system: OVCAR-5 ovarian
[26] = system: HT29 colon
[27] = system: SK-MEL-2 melanoma
[28] = system: NCI-H23 lung
[29] = system: NCI-H522 lung
[30] = system: T-47D breast
[31] = system: IGROV1 ovarian
[32] = system: RPMI-8226 leukemia
[33] = system: OVCAR-3 ovarian
[34] = system: EKVX NSCLC
[35] = system: ACHN renal
[36] = system: OVCAR-4 ovarian
[37] = system: NCI-H226 lung
[38] = system: SF-268 CNS
[39] = system: HS 578T breast
[40] = system: HL-60(TB) leukemia
[41] = system: TK-10 renal
[42] = system: RXF 393 renal
[43] = system: HOP-62 NSCLC
[44] = system: HOP-92 NSCLC
[45] = system: SK-OV-3 ovarian
[46] = system: CAKI-1 renal
[47] = system: SK-MEL-5 melanoma
[48] = system: HCT-116 colon
[49] = system: DU-145 prostate
[50] = system: SR leukemia
[51] = system: UO-31 renal
[52] = system: MCF7 breast
[53] = system: KM12 colon
[54] = system: UACC-62 melanoma
[55] = system: M14 melanoma
[56] = system: U251 CNS
[57] = system: MOLT-4 leukemia

## CC(C)(C)c1ccc(C(=O)Nc2sc3c(c2C#N)CCC(=O)C3)cc1
[1]
  GI50: 0.98 µM
  TGI: > 100 µM
[2]
  GI50: 0.139 µM
[3]
  GI50: 0.0874 µM
  TGI: > 71.4 µM
[4]
  GI50: 1.25 µM
  TGI: > 100 µM
[5]
  GI50: 0.704 µM
  TGI: 5.67 µM
[6]
  GI50: 0.0697 µM
  TGI: > 100 µM
[7]
  GI50: 0.262 µM
[8]
  GI50: 0.746 µM
  TGI: 3 µM
[9]
  GI50: 0.612 µM
  TGI: 2.6 µM
[10]
  GI50: 0.89 µM
  TGI: > 26 µM
[11]
  GI50: 0.105 µM
  TGI: 0.566 µM
[12]
  GI50: 0.338 µM
  TGI: 16.8 µM
[13]
  GI50: 0.718 µM
  TGI: 5.75 µM
[14]
  GI50: 0.328 µM
  TGI: 0.944 µM
[15]
  GI50: 0.406 µM
  TGI: > 100 µM
[16]
  GI50: 0.209 µM
  TGI: 0.936 µM
[17]
  GI50: 0.281 µM
  TGI: 3.4 µM
[18]
  GI50: 0.69 µM
  TGI: 3.47 µM
[19]
  GI50: 0.873 µM
  TGI: 4.82 µM
[20]
  GI50: 0.769 µM
[21]
  GI50: 0.611 µM
  TGI: > 53.5 µM
[22]
  GI50: 0.643 µM
  TGI: > 100 µM
[23]
  GI50: 1.66 µM
  TGI: 5.58 µM
[24]
  GI50: 0.658 µM
  TGI: > 26.2 µM
[25]
  GI50: 0.531 µM
  TGI: 5.78 µM
[26]
  GI50: 0.505 µM
  TGI: 3.83 µM
[27]
  GI50: 0.96 µM
  TGI: 2.91 µM
[28]
  GI50: 0.443 µM
  TGI: > 100 µM
[29]
  GI50: 0.233 µM
  TGI: 1.36 µM
[30]
  GI50: 0.211 µM
  TGI: 0.905 µM
[31]
  GI50: 0.657 µM
  TGI: > 20.4 µM
[32]
  GI50: 0.0902 µM
  TGI: 0.495 µM
[33]
  GI50: 0.473 µM
  TGI: 1.63 µM
[34]
  GI50: 1.13 µM
  TGI: > 100 µM
[35]
  GI50: 0.237 µM
  TGI: 0.641 µM
[36]
  GI50: 0.223 µM
  TGI: 0.687 µM
[37]
  GI50: 0.991 µM
  TGI: 5.74 µM
[38]
  GI50: 0.625 µM
  TGI: > 100 µM
[39]
  GI50: 0.339 µM
  TGI: > 20.5 µM
[40]
  GI50: 0.505 µM
  TGI: 1.95 µM
[41]
  GI50: 0.531 µM
  TGI: 5.08 µM
[42]
  GI50: 0.237 µM
  TGI: 0.796 µM
[43]
  GI50: 1.24 µM
  TGI: > 100 µM
[44]
  GI50: 1.21 µM
  TGI: 4.76 µM
[45]
  GI50: 2.18 µM
  TGI: 9.94 µM
[46]
  GI50: 0.235 µM
  TGI: 0.793 µM
[47]
  GI50: 0.706 µM
  TGI: 1.7 µM
[48]
  GI50: 0.122 µM
[49]
  GI50: 5.93 µM
  TGI: > 100 µM
[50]
  GI50: 0.149 µM
  TGI: > 38.1 µM
[51]
  GI50: 0.224 µM
  TGI: 0.678 µM
[52]
  GI50: 0.32 µM
[53]
  GI50: 0.418 µM
  TGI: > 100 µM
[54]
  GI50: 0.347 µM
  TGI: 2.24 µM
[55]
  GI50: 0.412 µM
  TGI: > 83.6 µM
[56]
  GI50: 0.218 µM
  TGI: > 100 µM
[57]
  GI50: 0.324 µM
  TGI: > 100 µM

## COc1ccc(CCn2c3c(c4c(O)cccc42)C(=O)c2ccccc2-3)cc1OC
[1]
  GI50: 32.9 µM
  TGI: > 100 µM
[2]
  GI50: 37.4 µM
  TGI: > 100 µM
[3]
  GI50: 12.5 µM
  TGI: 69.7 µM
[4]
  GI50: 19.5 µM
  TGI: 43.4 µM
[5]
  GI50: > 80.2 µM
  TGI: > 100 µM
[6]
  GI50: 20 µM
  TGI: > 66.8 µM
[7]
  GI50: > 45 µM
  TGI: > 73.3 µM
[8]
  GI50: 41.5 µM
  TGI: > 90.9 µM
[9]
  GI50: > 100 µM
  TGI: > 100 µM
[10]
  GI50: 31.2 µM
  TGI: > 96.5 µM
[11]
  GI50: 31.1 µM
  TGI: > 75.6 µM
[12]
  GI50: 6.57 µM
  TGI: > 47.7 µM
[13]
  GI50: 21 µM
  TGI: > 69.2 µM
[14]
  GI50: 29.1 µM
  TGI: > 87.3 µM
[15]
  GI50: > 100 µM
  TGI: > 100 µM
[16]
  GI50: 6.65 µM
  TGI: > 51.2 µM
[17]
  GI50: 22.5 µM
  TGI: > 73.4 µM
[18]
  GI50: 52.6 µM
  TGI: 98.6 µM
[19]
  GI50: 20 µM
  TGI: > 83.7 µM
[20]
  GI50: 36.8 µM
  TGI: > 69.4 µM
[21]
  GI50: 50.7 µM
  TGI: > 100 µM
[22]
  GI50: 34.3 µM
  TGI: > 83.6 µM
[23]
  GI50: > 100 µM
  TGI: > 100 µM
[24]
  GI50: 30.8 µM
  TGI: > 81.6 µM
[25]
  GI50: > 42 µM
  TGI: > 84.2 µM
[26]
  GI50: 43.5 µM
  TGI: > 100 µM
[27]
  GI50: 24.1 µM
  TGI: > 95.3 µM
[28]
  GI50: 25.3 µM
  TGI: > 77.7 µM
[29]
  GI50: 20.8 µM
  TGI: > 60.4 µM
[30]
  GI50: 67.9 µM
  TGI: > 100 µM
[31]
  GI50: 0.818 µM
  TGI: > 47.4 µM
[32]
  GI50: 21.2 µM
  TGI: > 70.8 µM
[33]
  GI50: 54.1 µM
  TGI: > 100 µM
[34]
  GI50: 29.3 µM
  TGI: > 94.7 µM
[35]
  GI50: 13.6 µM
  TGI: > 52.7 µM
[36]
  GI50: 71.8 µM
  TGI: > 100 µM
[37]
  GI50: > 56.1 µM
  TGI: > 100 µM
[38]
  GI50: 38.9 µM
  TGI: > 100 µM
[39]
  GI50: 46.2 µM
  TGI: > 85.4 µM
[40]
  GI50: 20.3 µM
  TGI: 53 µM
[41]
  GI50: 28.6 µM
  TGI: > 74.1 µM
[42]
  GI50: > 79 µM
  TGI: > 100 µM
[43]
  GI50: > 35.6 µM
  TGI: > 59.3 µM
[44]
  GI50: > 72.5 µM
  TGI: > 100 µM
[45]
  GI50: > 100 µM
  TGI: > 100 µM
[46]
  GI50: 36.3 µM
  TGI: > 96.5 µM
[47]
  GI50: 18.8 µM
  TGI: > 60.3 µM
[48]
  GI50: 26.1 µM
  TGI: > 57.5 µM
[49]
  GI50: > 60.6 µM
  TGI: > 100 µM
[50]
  GI50: 12.9 µM
  TGI: 34 µM
[51]
  GI50: 37.5 µM
  TGI: > 100 µM
[52]
  GI50: 34.8 µM
  TGI: > 100 µM
[53]
  GI50: 22.1 µM
  TGI: > 81.9 µM
[54]
  GI50: 21.5 µM
  TGI: > 72.9 µM
[55]
  GI50: 43.3 µM
  TGI: > 84.4 µM
[56]
  GI50: 41.8 µM
  TGI: > 100 µM
[57]
  GI50: 19.9 µM
  TGI: 63.9 µM
